The text below walks through data of US20240228535A1 (priority 2022, published 2024).

The target of the assay is SARS2 coronavirus 3CL protease (Severe acute respiratory syndrome coronavirus 2, UniProt P0DTD1). As to the kind of experiment: biochemical. Conditions: 5 nM enzyme, 30 min pre-incubation with compound, 15 μM peptide substrate, 4 h at room temperature; read-out: FRET Potency (nM); IC50 values in the SARS2 3CLPro FRET assay.
Take `CNC(=O)C(=O)[C@H](C[C@@H]1C[C@@H](C)NC1=O)NC(=O)c1cc(F)ccc1NC(=O)OC1CC1` [Example 121, cyclopropyl N-[4-fluoro-2-[[(1S)-3-(methylamino)-1-[[(3S,5R)-5-methyl-2-oxo-pyrrolidin-3-yl]methyl]-2,3-dioxo-propyl]carbamoyl]phenyl] carbamate]: the IC50 was 10.9 nM. On to `CNC(=O)C(=O)[C@H](C[C@@H]1C[C@@H](C)NC1=O)NC(=O)c1cc(Cl)ccc1NC(=O)C1CCC(F)(F)C1` (single isomer, unassigned) [Example 65], for which the IC50 was found to be 7.2 nM. On to `C[C@@H]1C[C@@H](C[C@H](NC(=O)c2cc(Cl)ccc2NC(=O)[C@H]2CN(C)C(=O)O2)C(=O)C(=O)NC2CC2)C(=O)N1` [Example 205], for which the IC50 was 6.6 nM. Regarding `C[C@@H]1C[C@@H](C[C@H](NC(=O)c2cc(Cl)ccc2NC(=O)C23CC(F)(C2)C3)C(=O)C(=O)NC2CC2)C(=O)N1` [Example 54, N-[4-chloro-2-[[(1S)-3-(cyclopropylamino)-1-[[(3S,5R)-5-methyl-2-oxo-pyrrolidin-3-yl]methyl]-2,3-dioxo-propyl]carbamoyl]phenyl]-3-fluoro-bicyclo[1.1.1]pentane-1-carboxamide], the IC50 was found to be 8.2 nM. For the compound `CNC(=O)C(=O)[C@H](C[C@@H]1C[C@@H](C)NC1=O)NC(=O)c1cc(C(F)F)ccc1NC(=O)c1ccnc(C(F)(F)F)c1` [Example 222, N-[4-(difluoromethyl)-2-[[(1S)-3-(methylamino)-1-[[(3S,5R)-5-methyl-2-oxo-pyrrolidin-3-yl]methyl]-2,3-dioxo-propyl]carbamoyl]phenyl]-2-(trifluoromethyl)pyridine-4-carboxamide], the IC50 turned out to be 5.2 nM. For `CNC(=O)C(=O)[C@H](C[C@@H]1C[C@@H](C)NC1=O)NC(=O)c1cc(Cl)ccc1NC(=O)c1ncc(C(F)(F)F)cn1` [Example 217, N-[4-chloro-2-[[(1S)-3-(methylamino)-1-[[(3S,5R)-5-methyl-2-oxo-pyrrolidin-3-yl]methyl]-2,3-dioxo-propyl]carbamoyl]phenyl]-5-(trifluoromethyl)pyrimidine-2-carboxamide], the IC50 was 6.7 nM. For the compound `C[C@@H]1C[C@@H](C[C@H](NC(=O)c2cc(Cl)ccc2NC(=O)C2CC2)C(=O)C(=O)NC2CC2)C(=O)N1` [Example 145, 5-chloro-2-(cyclopropanecarbonylamino)-N-[(1S)-3-(cyclopropylamino)-1-[[(3S,5R)-5-methyl-2-oxo-pyrrolidin-3-yl]methyl]-2,3-dioxo-propyl]benzamide], the IC50 came out at 26.8 nM.

As for `C[C@@H]1C[C@@H](C[C@H](NC(=O)c2cc(OC(F)F)ccc2NC(=O)c2cccc(C(F)(F)F)c2)C(=O)C(=O)NC2CC2)C(=O)N1` [Example 20, N-[(1S)-3-(cyclopropylamino)-1-[[(3S,5R)-5-methyl-2-oxo-pyrrolidin-3-yl]methyl]-2,3-dioxo-propyl]-5-(difluoromethoxy)-2-[[3-(trifluoromethyl)benzoyl]amino]benzamide], the IC50 came out at 26.4 nM. In the case of `CNC(=O)C(=O)[C@H](C[C@@H]1CCNC1=O)NC(=O)c1cc(Cl)ccc1NC(=O)OC1CC1` [Example 11, cyclopropyl (4-chloro-2-(((S)-4-(methylamino)-3,4-dioxo-1-((S)-2-oxopyrrolidin-3-yl)butan-2-yl)carbamoyl)phenyl)carbamate], the IC50 amounted to 4.8 nM.

As for `[2H]C([2H])([2H])OC(=O)Nc1ccc(Cl)cc1C(=O)N[C@@H](C[C@@H]1CCNC1=O)C(=O)C(=O)NC1CC1` [Example 124, trideuteriomethyl N-[4-chloro-2-[[(1S)-3-(cyclopropylamino)-2,3-dioxo-1-[[(3S)-2-oxopyrrolidin-3-yl]methyl]propyl]carbamoyl]phenyl]carbamate], the IC50 stood at 8.2 nM.

Consider `CNC(=O)C(=O)[C@H](C[C@@H]1C[C@@H](C)NC1=O)NC(=O)c1cc(Cl)ccc1NC(=O)OCC1CC1` [Example 152, cyclopropylmethyl N-[4-chloro-2-[[(1S)-3-(methylamino)-1-[[(3S,5R)-5-methyl-2-oxo-pyrrolidin-3-yl]methyl]-2,3-dioxo-propyl]carbamoyl]phenyl] carbamate], for which the IC50 is 5 nM. With `CNC(=O)C(=O)[C@H](C[C@@H]1CCNC1=O)NC(=O)c1cc(Cl)ccc1NC(=O)C1CC1C(F)(F)F` (stereo partly drawn) [Example 176, 5-chloro-N-[(1S)-3-(methylamino)-2,3-dioxo-1-[[(3S)-2-oxopyrrolidin-3-yl]methyl]propyl]-2-[[2-(trifluoromethyl)cyclopropane-carbonyl]amino]benzamide], the IC50 is 2.5 nM.

As for `CNC(=O)C(=O)[C@H](C[C@@H]1C[C@@H](C)NC1=O)NC(=O)c1cc(Cl)ccc1NC(=O)C(C)c1ccnc(C(F)(F)F)c1` (stereo partly drawn) [Example 228, 5-chloro-N-[(1S)-3-(methylamino)-1-[[(3S,5R)-5-methyl-2-oxo-pyrrolidin-3-yl]methyl]-2,3-dioxo-propyl]-2-[2-[2-(trifluoromethyl)-4-pyridyl]propanoylamino] benzamide], the IC50 is 6.1 nM. `CNC(=O)C(=O)[C@H](C[C@@H]1C[C@@H](C)NC1=O)NC(=O)c1cc(Cl)ccc1NC(=O)OCC(F)(F)F` [Example 181, 2,2,2-trifluoroethyl N-[4-chloro-2-[[(1S)-3-(methylamino)-1-[[(3S,5R)-5-methyl-2-oxo-pyrrolidin-3-yl]methyl]-2,3-dioxo-propyl]carbamoyl]phenyl] carbamate]: the IC50 came to 7.2 nM. For the compound `C[C@@H]1C[C@@H](C[C@H](NC(=O)c2cc(Cl)cnc2NC(=O)C23CC(C(F)(F)F)(C2)C3)C(=O)C(=O)NC2CC2)C(=O)N1` [Example 5, 5-chloro-N—((S)-4-(cyclopropylamino)-1-((3S,5R)-5-methyl-2-oxopyrrolidin-3-yl)-3,4-dioxobutan-2-yl)-2-(3-(trifluoromethyl)bicyclo[1.1.1]pentane-1-carboxamido)nicotinamide], the IC50 came to 8.7 nM. For `CCOC(=O)Nc1ccc(Cl)cc1C(=O)N[C@@H](C[C@@H]1C[C@@H](C)NC1=O)C(=O)C(=O)NC` [Example 129, ethyl N-[4-chloro-2-[[(1S)-3-(methylamino)-1-[[(3S,5R)-5-methyl-2-oxo-pyrrolidin-3-yl]methyl]-2,3-dioxo-propyl]carbamoyl]phenyl] carbamate], the IC50 turned out to be 5.9 nM. In the case of `CNC(=O)C(=O)[C@H](C[C@@H]1CCNC1=O)NC(=O)c1cc(Cl)ccc1NC(=O)OCC1CC1` [Example 136, cyclopropylmethyl N-[4-chloro-2-[[(1S)-3-(methylamino)-2,3-dioxo-1-[[(3S)-2-oxopyrrolidin-3-yl]methyl]propyl]carbamoyl]phenyl]carbamate], the IC50 was determined as 3.6 nM. Take `CNC(=O)C(=O)[C@H](C[C@@H]1C[C@@H](C)NC1=O)NC(=O)c1cc(Cl)cc(Cl)c1NC(=O)c1ccnc(C(F)(F)F)c1` [Example 231, N-[2,4-dichloro-6-[[(1S)-3-(methylamino)-1-[[(3S,5R)-5-methyl-2-oxo-pyrrolidin-3-yl]methyl]-2,3-dioxo-propyl]carbamoyl]phenyl]-2-(trifluoromethyl)pyridine-4-carboxamide]: the IC50 is 5.6 nM. Turning to `C[C@@H]1C[C@@H](C[C@H](NC(=O)c2cc(Cl)ccc2NC(=O)C2(CC(F)(F)F)CC2)C(=O)C(=O)NC2CC2)C(=O)N1` [Example 62], the IC50 came out at 7.6 nM. As to `CNC(=O)C(=O)[C@H](C[C@@H]1CCNC1=O)NC(=O)c1cc(Cl)ccc1NC(=O)OC1(C)CC1` [Example 138, (1-methylcyclopropyl) N-[4-chloro-2-[[(1S)-3-(methylamino)-2,3-dioxo-1-[[(3S)-2-oxopyrrolidin-3-yl]methyl]propyl]carbamoyl]phenyl]carbamate], the IC50 was 18.6 nM. For the compound `CC(OC(=O)Nc1ccc(Cl)cc1C(=O)N[C@@H](C[C@@H]1C[C@@H](C)NC1=O)C(=O)C(=O)NC1CC1)C(F)(F)F` (stereo partly drawn) [Example 210, (2,2,2-trifluoro-1-methyl-ethyl) N-[4-chloro-2-[[(1S)-3-(cyclopropylamino)-1-[[(3S,5R)-5-methyl-2-oxo-pyrrolidin-3-yl]methyl]-2,3-dioxo-propyl]carbamoyl]phenyl] carbamate], the IC50 amounted to 7.8 nM. Turning to `CNC(=O)C(=O)[C@H](C[C@@H]1CCNC1=O)NC(=O)c1cc(Cl)ccc1NC(=O)OCc1ccccc1` [Example 174], the IC50 came to 6.5 nM. For `CNC(=O)C(=O)[C@H](C[C@@H]1C[C@@H](C)NC1=O)NC(=O)c1cc(Cl)ccc1NC(=O)C(C)c1ccc(C(F)(F)F)nc1` (single isomer, unassigned) [Example 229], the IC50 is 33.5 nM. Regarding `C[C@@H]1C[C@@H](C[C@H](NC(=O)c2cc(Cl)ccc2NC(=O)CC(F)(F)F)C(=O)C(=O)NC2CC2)C(=O)N1` [Example 42, 5-chloro-N-[(1S)-3-(cyclopropylamino)-1-[[(3S,5R)-5-methyl-2-oxo-pyrrolidin-3-yl]methyl]-2,3-dioxo-propyl]-2-(3,3,3-trifluoropropanoylamino) benzamide], the IC50 worked out at 9.8 nM. Take `CCOC(=O)Nc1ccc(Cl)cc1C(=O)N[C@@H](C[C@@H]1CCNC1=O)C(=O)C(=O)NC` [Example 111, ethyl N-[4-chloro-2-[[(1S)-3-(methylamino)-2,3-dioxo-1-[[(3S)-2-oxopyrrolidin-3-yl]methyl]propyl]carbamoyl]phenyl]carbamate]: the IC50 was determined as 5.8 nM. On to `CNC(=O)C(=O)[C@H](C[C@@H]1C[C@@H](C)NC1=O)NC(=O)c1cc(Cl)ccc1NC(=O)OC(C)(C)C` [Example 153, tert-butyl N-[4-chloro-2-[[(1S)-3-(methylamino)-1-[[(3S,5R)-5-methyl-2-oxo-pyrrolidin-3-yl]methyl]-2,3-dioxo-propyl]carbamoyl]phenyl] carbamate], for which the IC50 is 39.8 nM.

`CNC(=O)C(=O)[C@H](C[C@@H]1C[C@@H](C)NC1=O)NC(=O)c1cc(Cl)ccc1NC(=O)c1ccc(C(F)(F)F)cn1` [Example 55, N-[4-chloro-2-[[(1S)-3-(methylamino)-1-[[(3S,5R)-5-methyl-2-oxo-pyrrolidin-3-yl]methyl]-2,3-dioxo-propyl]carbamoyl]phenyl]-5-(trifluoromethyl)pyridine-2-carboxamide]: the IC50 came to 8.2 nM.
